“Also recorded” adds a separate entry of the source. Read-outs that look alike come from different tables or passages of the source.
Experiments:
[1] = target: nicotine receptor, rat brain membranes; format: binding
[2] = target: nicotine receptor, rat brain membranes; format: binding; remark: listed apart in the source
[3] = tested on: nicotine-induced prostration in rats; set-up: species or system Sprague-Dawley male rats; conditions: rat, in vivo
[4] = tested on: nicotine-induced seizures in rats; conditions: rat, in vivo
rats or mice = conditions: in vivo; cited from earlier work
[5] = tested on: nicotine mortality in rats; conditions: rat, in vivo
[6] = tested on: hypertensive action of nicotine in anesthetized rats; conditions: rat, in vivo, iv
rats = tested on: rats; set-up: species or system Sprague-Dawley male rats; conditions: rat, in vivo
[7] = tested on: [3H]-nicotine binding sites in rat brain membranes
[8] = tested on: nicotine receptor, rat brain membranes; format: binding; conditions: for IC50: read-out: [3H]-nicotine IC50
[9] = tested on: nicotine receptor, rat brain membranes; format: binding; conditions: for IC50: read-out: [3H]-MCC IC50
[10] = tested on: nicotinic cholinergic and nicotine-like binding sites in rat brain membranes
[11] = tested on: hypertensive action of nicotine in anesthetized rats; assay: animal or person; conditions: Rattus norvegicus, iv
[12] = read-out: 3H-Nicotine Binding IC50

Compound: C[N+](C)(C)CCOC(=O)CCC(=O)OCC[N+](C)(C)C [TMAE succinate, succinylcholine]
- IC50 ([1]; read-out: 3H-MCC Binding IC50): 0.7 µM
- IC50 ([1]; read-out: IC50 for 3H-MCC): ~50 µM
- IC50 [2, 12]: 0.8 µM
- IC50 ([2]; read-out: IC50 for 3H-nicotine): ~50 µM

Compound: CCN(CC)CCOC(=O)c1ccc(N)cc1 [procaine]
- antagonism of nicotine-induced prostration / nicotine actions [3]: effectively block nicotine-induced prostration
- antagonist activity [3]: antagonists

Compound: CN(C)CCOC(=O)c1ccccc1 [DMAE benzoate, dimethylaminoethyl benzoate]
- % Antagonism of seizures [4]: 45%
- Seizures (rats with seizures/total) [4]: 5/9

Compound: COC(=O)[C@H]1[C@@H](OC(=O)c2ccccc2)C[C@@H]2CC[C@H]1N2C [cocaine]
- antagonism of nicotine-induced prostration / nicotine actions [3]: effectively block nicotine-induced prostration
- antagonist activity [3]: inactive

Compound: C[N+]1(C)CCCC1c1cccnc1 (stereo not shown) [N'-methyl nicotonium]
- seizures and mortality relative to nicotine (rats or mice): more potent than nicotine in producing seizures and mortality

Compound: CN1CCCC1c1cccnc1 (single isomer, unassigned; (-)) [(-)-nicotine]
- symptoms [4]: prostration followed by tremors, fasciculations, cyanosis and labored breathing, and myoclonic seizures
- Seizures (rats with seizures/total) ([4]; 1.5 mg/kg): 10/10
- Mortality (dead/total) ([5]; ip, 3 mg/kg): 8/10
- increase in systolic blood pressure [6]: 25%
- action on prostration (rats): agonists
- behavioral / respiratory effects (rats): deep diaphragmatic breathing and a decreased respiratory rate

Compound: CN1CCCC1c1cccnc1 (single isomer, unassigned; (-)) [[^3 H]-nicotine, (-)-[^3 H]-nicotine]
- Bmax, higher affinity site [7]: 5e-15 mol/mg

Compound: CCCN1CCCC1c1cccnc1 (stereo not shown) [N'-propyl nornicotine]
- decrease in affinity versus nicotine [8]: 200 fold
- decrease in affinity versus nicotine [9]: 200 fold

Compound: DMAE naphthoate [DMAE napththoate]
- IC50 ([1]; read-out: 3H-MCC Binding IC50): 70 µM
- IC50 [2, 12]: 80 µM

Compound: CN(C)C(=O)Oc1cccc([N+](C)(C)C)c1 [prostigmin]
- antagonist activity [3]: inactive

Compound: C[N+](C)(C)CCCCCC[N+](C)(C)C [hexamethonium]
- Kd [8]: > 100 µM
- IC50 [8]: > 100 µM
- IC50 [9]: > 100 µM

Compound: C[N+](C)(C)CCOC(=O)Nc1ccccc1 [TMAE phenylcarbamate]
- % Antagonism of seizures [4]: 89%
- Seizures (rats with seizures/total) [4]: 1/9
- protection against seizures [4]: almost complete protection
- % Antagonism of mortality [5]: 50%
- Mortality (dead/total) [5]: 4/10
- protection against nicotine mortality [5]: 50%
- antagonism of nicotine-induced prostration / nicotine actions [3]: next in effectiveness

Compound: CN(C)CCOC(N)=O [DMAE carbamate]
- behavioral effect (rats): only a similar effect

Compound: N-benzylpiperidyl methylcarbamate
- IC50 ([1]; read-out: 3H-MCC Binding IC50): > 100 µM
- IC50 [2, 12]: > 100 µM

Compound: CN(C)c1cccnc1 [3-dimethylaminopyridine]
- action on prostration (rats): agonists

Compound: α-bungarotoxin
- Kd [8]: > 100 µM
- IC50 [8]: > 100 µM
- IC50 [9]: > 100 µM

Compound: CCN1CCCC1c1cccnc1 (stereo not shown) [N'-ethyl nornicotine]
- IC50 ([1]; read-out: 3H-MCC Binding IC50): 0.1 µM
- decrease in affinity versus nicotine [8]: 3 fold
- decrease in affinity versus nicotine [9]: 3 fold
- IC50 [9]: 0.1 µM

Compound: CNC(=O)OC1CCN(Cc2ccccc2)CC1 [N-benzyl-4-piperdyl methylcarbamate]
- IC50 ([1]; read-out: 3H-MCC Binding IC50): > 100 µM
- IC50 [2, 12]: > 100 µM

Compound: CCN(CC)CC(=O)Nc1c(C)cccc1C [lidocaine]
- antagonist activity [3]: inactive

Compound: CN1[C@@H]2CC[C@H]1C[C@@H](OC(=O)C(CO)c1ccccc1)C2 (stereo partly shown) [atropine]
- % Antagonism of seizures [4]: 0%
- Seizures (rats with seizures/total) [4]: 6/6
- protection against nicotine mortality [5]: ineffective

Compound: CN(C)CCOC(=O)C1CCCCC1 [DMAE cyclohexylcarboxylate, dimethylaminoethyl cyclohexylcarboxylate]
- % Antagonism of seizures [4]: 50%
- Seizures (rats with seizures/total) [4]: 4/8
- seizures [4]: about half of the rats exhibited seizures

Compound: [3H]C([3H])([3H])[N+](C)(C)CCOC(=O)NC [[^3 H]-MCC, [^3 H]-methylcarbamyl choline]
- Bmax (Scatchard analysis) [10]: 4.0×10^-14 moles/mg protein
- rate constant for association ([10]; brain membranes): 300000 M⁻¹ s⁻¹
- rate constant for dissociation ([10]; brain membranes): 0.001 s⁻¹

Compound: C[N+](C)(C)CCOC(=S)Nc1ccccc1 [TMAE phenylthiocarbamate]
- % Antagonism of mortality [5]: 63%
- Mortality (dead/total) [5]: 3/10
- protection against nicotine mortality [5]: 63%
- antagonism of nicotine-induced prostration / nicotine actions [3]: next in effectiveness

Compound: C[N+](C)(C)CCOC(=O)Cc1ccccc1 [TMAE phenylacetate]
- antagonism of nicotine-induced prostration / nicotine actions [3]: next in effectiveness

Compound: C[N+](C)(C)CCOC(=O)c1ccccc1 [TMAE benzoate, benzoylcholine]
- % Antagonism of seizures [4]: 78%
- Seizures (rats with seizures/total) [4]: 1/8
- % Antagonism of mortality [5]: 63%
- Mortality (dead/total) [5]: 3/10
- protection against nicotine mortality [5]: 63%
- effectiveness relative to the DMAE ester [3]: 5 times

Compound: C[N+](C)(C)CCOC(=O)C1CCCCC1 [TMAE cyclohexylcarboxylate, choline ester of cyclohexylcarboxylic acid]
- % Antagonism of seizures [4]: 78%
- Seizures (rats with seizures/total) [4]: 1/8
- protection against nicotine mortality [5]: 66%
- ED100 ([11]; read-out: Antagonistic dose (±s.d.) to completely block elevation in systolic blood pressure): 5 ± 1.5 mg/kg
- ED100 ([11]; read-out: dose completely reversing increase in systolic blood pressure): 1.5 mg/kg

Compound: CN1[C@@H](CC(=O)c2ccccc2)CCC[C@H]1C[C@H](O)c1ccccc1 [α-lobeline]
- % Antagonism of seizures [4]: 0/8
- Seizures (rats with seizures/total) [4]: 1/8
- protection against seizures [4]: complete protection against seizures
- binding affinity [2]: even greater affinity than (-)-nicotine; also recorded: very high affinity for brain nicotine receptors
- % Antagonism of mortality [5]: 75%
- Mortality (dead/total) [5]: 2/10
- reduction of the mortality [5]: 75%
- antagonist activity [3]: most effective antagonist in blocking the prostration, seizures, and mortality
- dose blocking nicotine-induced prostration [3]: 10 nmol

Compound: CNC(=O)Oc1ccc2c(c1)[C@]1(C)CCN(C)[C@@H]1N2C [physostigmin]
- antagonist activity [3]: inactive

Compound: CN(C)CCOC(=O)c1cccnc1 [DMAE nicotinate]
- antagonism of nicotine-induced prostration / nicotine actions [3]: next in effectiveness; also recorded: antagonistic to the nicotine-induced prostration

Compound: TMAE naphthoate [TMAE napththoate]
- IC50 ([1]; read-out: 3H-MCC Binding IC50): 5 µM
- IC50 [2, 12]: 9 µM

Reference: patent publication US4966916A (priority 1989, dated 1990)
